Values quoted from earlier work, collected in patent publication US9248196B2, “Rebamipide complexes and cocrystals” (NUFORMIX LIMITED, priority 2011, dated 2016).
Read-outs that look alike come from different tables or passages of the source.

Question: What does the source list for `O=C(NC(Cc1cc(=O)[nH]c2ccccc12)C(=O)O)c1ccc(Cl)cc1` (stereo not drawn) [Rebamipide, 2-(4-chlorobenzamido)-3-(2-oxo-1,2-dihydroquinolin-4-yl)propanoic acid]?
Answer: solubility (in ethanol): very slightly soluble; solubility (in methanol): very slightly soluble; solubility (in water): practically insoluble
